Data taken from patent US4643991A (The University of Kentucky Research Foundation, priority 1984, dated 1987).
Like-named read-outs stand apart in the source and are kept apart here.

Tests used:
[1] = target: porcine pancreatic elastase (Sus scrofa, UniProt P00772); test: Inhibition of porcine pancreatic (PP) elastase in vitro, substrate BOC-Ala-ONp, Lineweaver-Burk and Dixon plots; assay type: biochemical; settings: for PPE (inhibitory activity towards PP elastase): Table 4
Procedure: As pointed out above, the compounds of the invention are useful as elastase inhibitors. To evaluate the compounds, the inhibitory activity of the compounds were tested in vitro against the serine dependent proteolytic enzymes, trypsin, chymotrypsin and porcine pancreatic elastase. All three enzymes belong to the family of serine proteases where the catalytic residues are composed of a triad of amino acid residues, serine, histidine and aspartic acid that actually perform the peptide bond hydrolysis. In addition to the catalytic residues, the active site is composed of an extended substrate binding site that consists of a primary substrate binding site S1, and various subsites on either side of the scissile bond.
The rate and extent of inhibition could be effected by varying the structure of R and R'. As shown from kinetic parameters when R is p-nitrophenol, and R' was varied, all the peptidyl carbamates inhibited PP elastase except when R' was a tert-butyl group. […] In all cases the inhibition was specific and competitive. […] Moreover, the nature of the protecting group (P5) seemed to affect the affinity of the inhibitor for the enzyme. In all these cases the inhibition was studied at different substrate and inhibitor concentrations and the mode of inhibition determined from Lineweaver-Burk and Dixon plots. Ki values were calculated from the latter. […] The enzymatic activity of PP elastase after treatment with the inhibitor(s) was also tested using the natural substrate elastin-congored.

HL elastase = target: T1, HL elastase (Homo sapiens, UniProt P08246); test: Inhibition of human leukocyte (HL) elastase; assay type: biochemical; settings: Table 4; [E] = 0.61 μM
T1 sequence (P08246 30-267): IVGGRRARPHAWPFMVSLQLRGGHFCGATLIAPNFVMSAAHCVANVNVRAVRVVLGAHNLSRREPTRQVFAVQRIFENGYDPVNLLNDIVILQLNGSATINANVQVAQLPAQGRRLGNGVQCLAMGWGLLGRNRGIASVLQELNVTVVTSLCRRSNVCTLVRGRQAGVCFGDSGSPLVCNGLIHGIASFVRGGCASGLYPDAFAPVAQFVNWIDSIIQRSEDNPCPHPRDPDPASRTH

[2] = Table 2, changes in P1, [E] = 0.61 μM
[3] = Table 1, changes in P1', [E] = 0.61 μM
[4] = Table 1, changes in P1', PP elastase, read-out: Ki
[5] = Table 3, variations in P5 and P3

Chain of porcine pancreatic elastase (P00772 27-266): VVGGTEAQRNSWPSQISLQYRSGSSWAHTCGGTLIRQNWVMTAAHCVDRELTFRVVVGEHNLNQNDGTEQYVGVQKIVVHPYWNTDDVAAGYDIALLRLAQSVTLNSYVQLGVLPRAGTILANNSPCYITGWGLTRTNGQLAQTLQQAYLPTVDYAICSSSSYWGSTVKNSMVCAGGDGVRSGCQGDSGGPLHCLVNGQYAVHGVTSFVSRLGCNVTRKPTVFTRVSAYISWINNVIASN

COC(=O)CCC(=O)N[C@@H](C)C(=O)N[C@@H](C)C(=O)N1CCC[C@H]1C(=O)CN(C(=O)Oc1ccc([N+](=O)[O-])cc1)C(C)(C)C [Compound 72]
Comments (inhibition of PP elastase) [1, 2]: - (NO INHIBITION OF PP ELASTASE AT [I] < 150 μM USING [E] = 0.61 μM)

COC(=O)CCC(=O)N[C@@H](C)C(=O)N[C@@H](C)C(=O)N1CCC[C@H]1C(=O)CN(Cc1ccccc1)C(=O)Oc1ccc([N+](=O)[O-])cc1 [Compound 51, P-Nitrophenyl N-(methyl succinyl-L-alanyl-L-alanyl-L-prolylmethyl)-N-phenylmethylcarbamate]
PPE (inhibitory activity towards PP elastase) ([1]; [E] = 0.61 μM): - (No inhibition at [I] < 150 μM using [E] = 0.61 μM.) | HLE (inhibitory activity towards HL elastase) (HL elastase): - (No inhibition at [I] < 150 μM using [E] = 0.61 μM.)

COC(=O)CCC(=O)N[C@@H](C)C(=O)N[C@@H](C)C(=O)N1CCC[C@H]1C(=O)CN(CC(C)C)C(=O)Oc1ccc([N+](=O)[O-])cc1 [Compound 47, p-Nitrophenyl N-(methylsuccinyl-L-alanyl-L-alanyl-L-prolylmethyl)-N-(2-methyl)propylcarbamate]
PPE (inhibitory activity towards PP elastase) ([1]; [E] = 0.61 μM): - (No inhibition at [I] < 150 μM using [E] = 0.61 μM.)

COC(=O)CCC(=O)N[C@@H](C)C(=O)N[C@@H](C)C(=O)N1CCC[C@H]1C(=O)CN(C(=O)OCC(F)(F)C(F)(F)C(F)(F)F)C(C)C [Compound 61, Heptafluorobutyl N-(methyl succinyl-L-alanyl-L-alanyl-L-prolylmethyl)-N-isopropylcarbamate]
Comments (inhibition of PP elastase) [1, 3]: +

CCCN(CC(=O)[C@@H]1CCCN1C(=O)[C@H](C)NC(=O)[C@H](C)NC(=O)CCC(=O)OC)C(=O)Oc1ccc([N+](=O)[O-])cc1 [Compound 29, P-Nitrophenyl N-(methyl succinyl-L-alanyl-L-alanyl-L-prolylmethyl) N-propylcarbamate]
Ki ([1]; Table 2, changes in P1, PP elastase, read-out: Ki): 30.5 µM | Comments (inhibition of PP elastase) [1, 2]: +

COC(=O)CCC(=O)N[C@@H](C)C(=O)N[C@@H](C)C(=O)N1CCC[C@H]1C(=O)CN(C(=O)Oc1ccc([N+](=O)[O-])cc1)C1CCCCC1 [Compound 55, P-Nitrophenyl N-(methyl succinyl-L-alanyl-L-alanyl-L-prolylmethyl)-N-cyclohexylcarbamate]
PPE (inhibitory activity towards PP elastase) ([1]; [E] = 0.61 μM): - (No inhibition at [I] < 150 μM using [E] = 0.61 μM.) | HLE (inhibitory activity towards HL elastase) (HL elastase): - (No inhibition at [I] < 150 μM using [E] = 0.61 μM.)

COC(=O)CCC(=O)N[C@@H](C)C(=O)N[C@@H](C)C(=O)N1CCC[C@H]1C(=O)CN(C(=O)Oc1ccc([N+](=O)[O-])cc1)C(C)C [Compound 10, p-Nitrophenyl N-(Methy Succinyl-L-Alanyl-L-Alanyl-L-Prolymethyl)-N-Isopropyl Carbamate]
Ki [1, 4]: 42.5 µM | Comments (inhibition of PP elastase) [1, 3]: + | Comments (inhibition of PP elastase) [1, 2]: +

COC(=O)CCC(=O)N[C@@H](C)C(=O)N[C@@H](C)C(=O)N1CCC[C@H]1C(=O)CN(C(=O)Oc1ccccc1)C(C)C [Compound 11, Phenyl N-(Methyl Succinyl-L-Alanyl-L-Alanyl-L-Prolyl Methyl)-N-Isopropyl Carbamate]
Ki [1, 4]: 32.5 µM | Comments (inhibition of PP elastase) [1, 3]: +

CC(C)N(CC(=O)[C@@H]1CCCN1C(=O)OC(C)(C)C)C(=O)Oc1ccc([N+](=O)[O-])cc1 [Compound 6, p-Nitrophenyl N-(N'-t-Boc-L-prolyl)Methyl-N-Isopropylcarbamate]
Hydrolysis by PP elastase ([1]; detected by the release of p-nitrophenol): hydrolysis of 6 by PP elastase

COC(=O)CCC(=O)N[C@@H](C)C(=O)N[C@@H](C)C(=O)N1CCC[C@H]1C(=O)CN(C(=O)Oc1ccc([N+](=O)[O-])cc1)C1CC1 [Compound 32, P-Nitrophenyl N-(methyl succinyl-L-alanyl-L-analyl-L-prolylmethyl)-N-cyclopropylcarbamate]
Comments (inhibition of PP elastase) [1, 2]: +

C[C@H](NC(=O)OC(C)(C)C)C(=O)Oc1ccc([N+](=O)[O-])cc1 [BOC-Ala-ONp, reference compound]
Km ([1]; substrate of PP elastase assay): 4.8 mM

COC(=O)CCC(=O)N[C@@H](C)C(=O)N[C@@H](C)C(=O)N1CCC[C@H]1C(=O)CN(C)C(=O)Oc1ccc([N+](=O)[O-])cc1 [Compound 68, p-Nitropheny N-(methyl succinyl-L-alanyl-L-alanyl-L-prolymethyl)-N-methyl-carbamate]
Comments (inhibition of PP elastase) [1, 2]: +

COC(=O)CCC(=O)N[C@@H](C)C(=O)N[C@@H](C)C(=O)N1CCC[C@H]1C(=O)CN(C(=O)Oc1c(F)c(F)c(F)c(F)c1F)C(C)C [Compound 58, Pentafluorophenyl N-(methyl succinyl-L-analyl-L-alanyl-L-prolymethyl)-N-isopropyl-carbamate]
Ki [1, 4]: 37.5 µM | Comments (inhibition of PP elastase) [1, 3]: + | Comments (inhibition of PP elastase) [1, 5]: +

COC(=O)CCC(=O)N[C@@H](C)C(=O)N[C@@H](C)C(=O)N1CCC[C@H]1C(=O)CN(C(=O)Sc1nnnn1C)C(C)C [Compound 18]
Ki [1, 4]: 14.8 µM | Comments (inhibition of PP elastase) [1, 3]: +

CC(C)N(CC(=O)[C@@H]1CCCN1C(=O)[C@H](C)NC(=O)[C@H](C)NC(=O)C(F)(F)F)C(=O)Oc1c(F)c(F)c(F)c(F)c1F [Compound 93, Pentafluorophenyl N-(trifluoroacetyl-L-alanyl-L-alanyl-L-prolylmethyl)-N-isopropylcarbamate]
Ki [1]: 49 µM | Comments (inhibition of PP elastase) [1, 5]: +
